Measurements from PubChem BioAssay (NCI).
Values joined by “and” are separate entries in the source; they are usually repeats but may differ in a detail not shown here. Equal entries are not always repeated.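 96-well plates; 48 h exposure; 5 concentrations. Endpoints by linear interpolation between flanking doses. Not reached: highest tested concentration assigned. GI50: concentration for 50% inhibition of growth. TGI: total growth inhibition.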

Assays:
Test in all cases: NCI tumour cell line growth inhibition, 48 h
UO-31 renal = test system: UO-31 renal
MALME-3M melanoma = test system: MALME-3M melanoma
OVCAR-4 ovarian = test system: OVCAR-4 ovarian
SF-268 CNS = test system: SF-268 CNS
HT29 colon = test system: HT29 colon
SN12C renal = test system: SN12C renal
SF-539 CNS = test system: SF-539 CNS
IGROV1 ovarian = test system: IGROV1 ovarian
PC-3 prostate = test system: PC-3 prostate
SK-MEL-28 melanoma = test system: SK-MEL-28 melanoma

Row | SMILES | TGI (UO-31 renal) | TGI (MALME-3M melanoma) | TGI (OVCAR-4 ovarian) | TGI (SF-268 CNS) | TGI (HT29 colon) [µM] | TGI (SN12C renal) | TGI (SF-539 CNS) | TGI (IGROV1 ovarian) | GI50 (UO-31 renal) | GI50 (SF-268 CNS) | GI50 (PC-3 prostate) [µM] | TGI (PC-3 prostate) | GI50 (SN12C renal) [µM] | GI50 (SF-539 CNS) [µM] | GI50 (IGROV1 ovarian) | GI50 (MALME-3M melanoma) | GI50 (OVCAR-4 ovarian) | GI50 (HT29 colon) [µM] | GI50 (SK-MEL-28 melanoma) [µM] | TGI (SK-MEL-28 melanoma)
1 | O=C(CCc1ccccc1)On1nnc2ccccc2c1=O | > 100 µM | > 100 µM | > 100 µM | > 100 µM | > 100 | > 100 µM | > 100 µM | > 100 µM | – | – | – | – | – | – | – | – | – | – | – | –
2 | COc1ccc(OC)c(-c2cc(-c3ccccc3)nn2-c2ccc(S(N)(=O)=O)cc2)c1 | 50.4 µM | – | – | 27.5 µM | – | 25 µM | 36.6 µM | > 100 µM | 17.8 µM | 12.6 µM | 12.2 | 28 µM | 12.5 | 18.7 | 23.3 µM | – | – | – | – | –
3 | CCN(CC)CCCCCOc1cc(O)c2c(=O)cc(-c3ccccc3)oc2c1 | 3.64 µM | 4.2 µM | 20.5 µM | 25.5 µM | 5.5 | 17 µM | 6.01 µM | 4.87 µM | 1.85 µM | 7.82 µM | – | – | 4.78 | 2.43 | 2.08 µM | 1.86 µM | 7.27 µM | 2.21 | 1.62 | 3.07 µM
4 | CN(/N=C/c1ccnc2ccccc12)c1ccc([N+](=O)[O-])cc1[N+](=O)[O-] | > 100 µM | > 100 µM | > 100 µM | > 100 µM | > 100 | > 100 µM | > 100 µM | > 100 µM | – | – | – | – | – | – | – | – | – | – | – | > 100 µM
5 | CN1CCN(Cc2ccc(NC(=O)c3[nH]ncc3Nc3ncnc4sccc34)cc2)CC1 | 3.54 µM | – | 3.92 µM | 3.73 µM | – | > 100 µM | 1.56 µM | > 100 µM | 0.357 µM | 0.446 µM | 0.394 | > 100 µM | 0.361 | 0.127 | 0.396 µM | – | 0.326 µM | – | 0.857 | > 100 µM
6 | Cc1cccc2c1Oc1cc(Cl)ccc1C2NC(=O)CN(C)C (centres undefined) | > 100 µM | – | > 100 µM | > 100 µM | > 100 | > 100 µM | > 100 µM | > 100 µM | – | – | – | – | – | – | – | – | – | – | – | 72.7 µM
7 | O=C(Nc1cccc(C(F)(F)F)c1)c1cccc(NC2=C(Cl)C(=O)N(Cc3ccccc3)C2=O)c1 | > 100 µM | – | > 100 µM | 40.9 µM | > 100 | > 100 µM | 62.7 µM | 18.3 µM | 11.7 µM | 5.96 µM | 3.1 | 14.3 µM | 14.9 | 26 | 1.92 µM | – | 52.2 µM | 40.1 | 45.1 | > 100 µM
8 | O=C(O)c1ccc(N=Nc2cc(S(=O)(=O)O)c3cccnc3c2O)cc1 | > 100 µM | > 100 µM | > 100 µM | > 100 µM | > 100 | > 100 µM | > 100 µM | > 100 µM | – | – | – | – | – | – | – | – | – | – | – | > 100 µM
9 | CC1=Nc2c([nH]c(=S)[nH]c2=O)NC(c2ccc(Cl)c(Cl)c2)C1 (centres undefined) | 89.6 µM | > 100 µM | 57.9 µM | > 93.1 µM | 59.6 | 43.9 µM | 46.5 µM | 40.8 µM | – | – | – | – | – | – | – | – | – | – | – | 36.7 µM
10 | C[C@H]1COC2(c3ccccc3)CCC(=O)N12 (some centres undefined) | – | > 100 µM | > 100 µM | > 100 µM | > 100 | > 100 µM | > 100 µM | > 100 µM | – | – | – | – | – | – | – | – | – | – | – | > 100 µM
11 | CC(C)c1cc(CNc2nc(Nc3cc(C4CC4)[nH]n3)cc(N3CCN(C)CC3)n2)on1 | > 10 µM and 5.9 µM | > 10 µM and 2.96 µM | > 10 µM and 4.57 µM | > 10 µM and 2.25 µM | – | > 10 µM and 15.1 µM | > 10 µM and 1.02 µM | 4.94 µM and 7.13 µM | 2 µM and 0.688 µM | 1.7 µM and 0.277 µM | – | > 10 µM and 7.02 µM | – | – | 0.462 µM and 0.175 µM | 1.61 µM and 0.276 µM | 2.14 µM and 0.731 µM | – | – | > 10 µM and 4.59 µM
12 | CC(=O)OCC(OC(C)=O)C(OC(C)=O)C(OC(C)=O)C(=O)CNn1c(-c2ccccc2)nc2ccc(Br)cc2c1=O (centres undefined) | > 100 µM | > 100 µM | > 100 µM | > 100 µM | > 100 | > 100 µM | > 100 µM | – | – | – | – | – | – | – | – | – | – | – | – | > 100 µM
13 | CCCCSCc1nc2nc(Cl)c(Cl)nc2[nH]1 | – | 53.6 µM | > 100 µM | > 100 µM | > 100 | 53.2 µM | > 100 µM | > 100 µM | – | – | – | > 100 µM | – | – | – | – | – | – | – | 71.9 µM
14 | OCC(O)COc1c(Cl)ccc(Cl)c1Cl (centres undefined) | > 100 µM | > 100 µM | > 100 µM | > 100 µM | > 100 | > 100 µM | > 100 µM | > 100 µM | – | – | – | – | – | – | – | – | – | – | – | > 100 µM
15 | COc1ccc(NC(=O)Nc2ccc(Nc3nc(C)cc(Nc4ccc(C)cc4)n3)cc2)cc1 | 2.82 µM | 3.58 µM | 2.55 µM | 5.07 µM | – | 3.86 µM | 3.31 µM | 3.28 µM | 1.48 µM | 2.16 µM | 1.46 | 2.88 µM | 1.88 | 1.7 | 1.71 µM | 1.83 µM | 1.16 µM | – | 1.51 | 3.14 µM
16 | CN(C)c1nc(N(C)C)n2nc(-c3ccccc3[N+](=O)[O-])nc2n1 | > 100 µM | > 100 µM | > 100 µM | > 100 µM | > 100 | > 100 µM | > 100 µM | > 100 µM | – | – | – | – | – | – | – | – | – | – | – | > 100 µM
17 | CCCCN(CCCC)CC(C)(C)C(O)c1ccc(OC)c2ccccc12 (centres undefined) | 17.4 µM | 16.6 µM | 23.5 µM | 38.3 µM | 13.4 | 20.6 µM | – | 14.1 µM | 3.02 µM | 12.6 µM | 2.88 | 13.7 µM | 4.54 | – | 1.69 µM | 3.02 µM | 0.385 µM | 0.875 | 11.3 | 24.8 µM
18 | NS(=O)(=O)c1ccc(NC(=O)CC(=O)Nc2ccc(S(N)(=O)=O)cc2)cc1 | > 100 µM | > 100 µM | > 100 µM | > 100 µM | > 100 | > 100 µM | > 100 µM | > 100 µM | – | – | – | – | – | – | – | – | – | – | – | > 100 µM
